# Measured values as given in patent publication US8563601B2, “Method of managing broncho-constrictive condition” (Indus Biotech Private Limited, priority 2010, dated 2013).
# Legend:
# [1] = tested on: ovalbumin-induced broncho-constriction in sensitized guinea pigs; test: In-vivo pulmonary antigen-induced sensitization study (intratracheal pressure); design: species or system Male Duncan Hartley derived guinea pigs; conditions: about 30 mg/kg
# Experimental: Prophylactic activity of instant composition against antigen-induced broncho-constriction is tested in sensitized guinea pigs. […] One hour after pretreatment, the guinea pigs are sensitized with intraperitoneal injection of ovalbumin (0.5 μg). A cocktail of Indomethacin (about 10 mg/kg), Mepyramine (about 2 mg/kg) and Propanolol (about 100 mg/kg) is injected about 10 mins before sensitization in order to block other mediators of broncho-blockade. Sensitized animals are anesthetized and artificially ventilated.
# [2] = Heart rate and blood pressure in the pulmonary antigen-induced sensitization study; assay type: in vivo, Male Duncan Hartley derived guinea pigs; conditions: guinea pigs
# Experimental: Prophylactic activity of instant composition against antigen-induced broncho-constriction is tested in sensitized guinea pigs. Male Duncan Hartley derived guinea pigs (400±50 g) are pretreated with instant composition at dose of about 100 mg/kg of body weight of the subject, administered orally. One hour after pretreatment, the guinea pigs are sensitized with intraperitoneal injection of ovalbumin (0.5 μg). A cocktail of Indomethacin (about 10 mg/kg), Mepyramine (about 2 mg/kg) and Propanolol (about 100 mg/kg) is injected about 10 mins before sensitization in order to block other mediators of broncho-blockade. Sensitized animals are anesthetized and artificially ventilated. […]
smiles,measurement,setting,value
O=C1CCN(c2ccccc2)N1 [Phenidone],ΔITP Before Ovalbumin,[1]; n = 5,0 cm H2O
same,ΔITP After Ovalbumin,"[1]; n = 5, vehicle control 29.3 ± 2.2",2.3 ± 0.3 cm H2O
same,effect on blood pressure,[2]; 5 minutes after administration,reduced blood pressure
same,Blood Pressure,"[2]; measured 5 mins after administration, n = 5, vehicle control 49.4 ± 4.0",34.4 ± 1.9 mm Hg
same,Heart Rate,"[2]; measured 5 mins after administration, n = 5, vehicle control 171.2 ± 3.4",162.4 ± 4.7 beats/minute
